In the RepoRT retention time repository:

Assay: HILIC, HILICON iHILIC-(P) Classic, HILIC, PEEK, 100 × 2.1 mm, 5 µm, 40 °C, 0.2 mL/min, estimated dead time 1.1 min; A: water + 20 mM ammonium carbonate + 5 µM medronic acid; B: 10% water + 90% acetonitrile + 2 mM ammonium carbonate + 0.5 µM medronic acid; gradient (min/%B) 0/95 18/55 19/20 22/20 22.5/95 24/95 26/95
Details: stereoisomer not certain

Structure (SMILES) | LC retention time [min]
O=C(O)CCC(=O)C(=O)O [2-Oxoglutaric acid] | 12.7
Nc1ncnc2c1ncn2C1OC(COP(=O)(O)OP(=O)(O)O)C(O)C1O (centres undefined) [ADP] | 11.9
Nc1ncnc2c1ncn2C1OC(COP(=O)(O)O)C(O)C1O (centres undefined) [AMP] | 10.1
Nc1ncnc2c1ncn2C1OC(COP(=O)(O)OP(=O)(O)OP(=O)(O)O)C(O)C1O (centres undefined) [ATP] | 13.3
CC(=O)SCCNC(=O)CCNC(=O)C(O)C(C)(C)COP(=O)(O)OP(=O)(O)OCC1OC(n2cnc3c(N)ncnc32)C(O)C1OP(=O)(O)O (centres undefined) [Acetyl-CoA] | 9.93
Nc1ncnc2c1ncn2C1OC(CO)C(O)C1O (centres undefined) [Adenosine] | 4.79
NC(N)=NCCCC(N)C(=O)O (centres undefined) [Arginine] | 18.5
NC(=O)CC(N)C(=O)O (centres undefined) [Asparagine] | 9.65
NC(CC(=O)O)C(=O)O (centres undefined) [Aspartic Acid] | 10.2
O=C(O)CC(O)(CC(=O)O)C(=O)O [Citric acid] | 15.3
CC(C)(COP(=O)(O)OP(=O)(O)OCC1OC(n2cnc3c(N)ncnc32)C(O)C1OP(=O)(O)O)C(O)C(=O)NCCC(=O)NCCS (centres undefined) [CoenzymeA] | 11.5
O=C(CO)C(O)C(O)C(O)COP(=O)(O)O (centres undefined) [Fructose 6-phosphate] | 11.9
O=P(O)(O)OCC1OC(O)(COP(=O)(O)O)C(O)C1O (centres undefined) [Fructose-1,6-bisphosphate] | 16.4
O=C(O)C=CC(=O)O [Fumaric Acid] | 12.4
NC(CCC(=O)NC(CS)C(=O)NCC(=O)O)C(=O)O (centres undefined) [GSH] | 10.2
NC(CCC(=O)NC(CSSCC(NC(=O)CCC(N)C(=O)O)C(=O)NCC(=O)O)C(=O)NCC(=O)O)C(=O)O (centres undefined) [GSSG] | 14.7
O=P(O)(O)OC1OC(CO)C(O)C(O)C1O (centres undefined) [Glucose-1-phosphate] | 11.9

Structure (SMILES) | LC retention time [min]
O=P(O)(O)OCC1OC(O)C(O)C(O)C1O (centres undefined) [Glucose-6-phosphate] | 13.9
NC(CCC(=O)O)C(=O)O (centres undefined) [Glutamic acid] | 9.7
NC(=O)CCC(N)C(=O)O (centres undefined) [Glutamine] | 9.81
O=P(O)(O)OCC(O)CO (centres undefined) [Glycerol-3-phosphate] | 10.8
O=C(O)CC(C(=O)O)C(O)C(=O)O (centres undefined) [Isocitric acid] | 15.5
CC(O)C(=O)O (centres undefined) [Lactic Acid] | 3.92
NCCCCC(N)C(=O)O (centres undefined) [Lysine] | 18.3
O=C(O)CC(O)C(=O)O (centres undefined) [Malic Acid] | 11.9
NC(=O)C1=CN(C2OC(COP(=O)(O)OP(=O)(O)OCC3OC(n4cnc5c(N)ncnc54)C(O)C3O)C(O)C2O)C=CC1 (centres undefined) [NADH] | 9.08
NC(=O)C1=CN(C2OC(COP(=O)(O)OP(=O)(O)OCC3OC(n4cnc5c(N)ncnc54)C(OP(=O)(O)O)C3O)C(O)C2O)C=CC1 (centres undefined) [NADPH] | 15.2
NC(=O)c1ccc[n+](C2OC(COP(=O)(O)OP(=O)(O)OCC3OC(n4cnc5c(N)ncnc54)C(OP(=O)(O)O)C3O)C(O)C2O)c1 (centres undefined) [NADP] | 14.4
NC(=O)c1ccc[n+](C2OC(COP(=O)(O)OP(=O)(O)OCC3OC(n4cnc5c(N)ncnc54)C(O)C3O)C(O)C2O)c1 (centres undefined) [NAD] | 11.1
C=C(OP(=O)(O)O)C(=O)O [PEP] | 14.6
O=P(O)(O)OCC1OC(O)C(O)C1O (centres undefined) [Pentose-phosphate] | 11.6
O=C(O)CCC(=O)O [Succinic Acid] | 11.2
O=C(CO)COP(=O)(O)O [Triose phosphate] | 11.8
CC(=O)NC1C(OP(=O)(O)OP(=O)(O)OCC2OC(n3ccc(=O)[nH]c3=O)C(O)C2O)OC(CO)C(O)C1O (centres undefined) [UDP-GlcNAc] | 12
